According to US8119614B2, “Substitution derivatives of N6-benzyladenosine, methods of their preparation, their use for preparation of drugs, cosmetic preparations and growth regulators, pharmaceutical preparations, cosmetic preparations and growth regulators containing these compounds” (Ustav Experimentalni Botaniky Akademie Ved Ceske Republiky, priority 2002, dated 2012):
“Also recorded” adds a separate entry of the source.

Experiments:
[1] = test system: promyelocytic HL-60; assay: In vitro cytotoxic activity, Calcein AM assay, HL60; format: cell-based, human; conditions: 72 hours, read-out: IC 50 HL60
Outline: (§1)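 Read-out: Calcein AM fluorescence of viable cells, 1 h after dye addition, expressed relative to mean control wells. Compounds were applied for 72 h in DMEM/10% FCS at six 4-fold dilutions, highest usually 166.7 μM; GI50 derived from dose-response curves.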

[2] = test system: human erythroleukaemia K562; assay: In vitro cytotoxic activity, Calcein AM assay, K-562; format: cell-based; conditions: 72 hours, read-out: IC 50 K-562
Outline: as §1

[3] = test system: human malignant melanoma cells G361; assay: In vitro cytotoxic activity, Calcein AM assay, G-361; format: cell-based; conditions: 72 hours, read-out: IC 50 G-361
Source text: One of the parameters used, as the basis for cytotoxicity assays, is the metabolic activity of viable cells. For example, a microtiter assay, which uses the Calcein AM, is now widely used to quantitate cell proliferation and cytotoxicity. For instance, this assay is used in drug screening programs and in chemosensitivity testing. Because only metabolically active cells cleave Calcein AM, these assays detect viable cells exclusively. The quantity of reduced Calcein AM corresponds to the number of vital cells in the culture.
Human T-lymphoblastic leukemia cell line CEM; promyelocytic HL-60 and monocytic U937 leukemias; breast carcinoma cell lines MCF-7; cervical carcinoma cells HELA; mouse fibroblasts NIH3T3; human erythroleukaemia K562 and human malignant melanoma cells G361 were used for routine screening of compounds. The cells were maintained in Nunc/Corning 80 cm^2 plastic tissue culture flasks and cultured in cell culture medium (DMEM with 5 g/l glucose, 2 mM glutamine, 100 U/ml penicillin, 100 μg/ml streptomycin, 10% fetal calf serum and sodium bicarbonate).
The cell suspensions that were prepared and diluted according to the particular cell type and the expected target cell density (10^4 cells per well based on cell growth characteristics) were added by pipette (80 μl) into 96/well microtiter plates. Inoculates were allowed a pre-incubation period of 24 hours at 37° C. and 5% CO2 for stabilisation. Four-fold dilutions of the intended test concentration were added at time zero in 20 μl aliquots to the microtiter plate wells. Usually, test compound was evaluated at six 4-fold dilutions. In routine testing, the highest well concentration was 166.7 μM, but it can be the matter of change dependent on the agent. All drug concentrations were examined in duplicates. Incubations of cells with the test compounds lasted for 72 hours at 37° C., in 5% CO2 atmosphere and 100% humidity. At the end of incubation period, the cells were assayed by using the Calcein AM. Ten microliters of the stock solution were pipetted into each well and incubated further for 1 hours. Fluorescence (FD) was measured with the Labsystem FIA Reader Fluoroscan Ascent (UK). The tumour cell survival (GI50) was calculated using the following equitation: GI50=(FDdrug exposed well/mean FDcontrol wells)×100%. The GI50 value, the drug concentration lethal to 50% of the tumour cells, was calculated from the obtained dose response curves (FIG. 3).

[4] = test system: Human T-lymphoblastic leukemia cell line CEM; assay: In vitro cytotoxic activity, Calcein AM assay, CEM; format: cell-based; conditions: 72 hours
Outline: as §1

[5] = test system: mouse fibroblasts NIH3T3; assay: In vitro cytotoxic activity, Calcein AM assay, NIH-3T3; format: cell-based; conditions: 72 hours, read-out: IC 50 NIH-3T3
Outline: as §1

[6] = test system: breast carcinoma cell lines MCF-7; assay: In vitro cytotoxic activity, Calcein AM assay, MCF7; format: cell-based, human; conditions: 72 hours, read-out: IC 50 MCF7
Outline: as §1

[7] = test system: HOS; assay: In vitro cytotoxic activity, Calcein AM assay, HOS; format: cell-based; conditions: 72 hours
[8] = test system: Human lymphocytes; assay: Immunosuppressive activity: concanavalin A induced lymphocyte proliferation, [^3H]-TdR incorporation; format: cell-based; conditions: 72 hours, read-out: Human lymphocytes ED50
Procedure: Human heparinized peripheral blood was obtained from healthy volunteers by cubital vein punction. The blood was diluted in PBS (1:3) and mononuclear cells were separated by centrifugation in Ficoll-Hypaque density gradient (Pharmacia, 1.077 g/ml) at 2200 rpm for 30 minutes. Following centrifugation, lymphocytes were washed in PBS and resuspended in cell culture medium (RMPI 1640, 2 mM glutamine, 100 U/ml penicillin, 100 μg/ml streptomycin, 10% fetal calf serum and sodium bicarbonate).
The cells were diluted at target density of 1,100,000 cells/ml were added by pipette (180 μl) into 96/well microtiter plates. Four-fold dilutions of the intended test concentration were added at time zero in 20 μl aliquots to the microtiter plate wells. Usually, test compound was evaluated at six 4-fold dilutions. In routine testing, the highest well concentration was 266.7 μM. All drug concentrations were examined in duplicates. All wells with exception of unstimulated controls were activated with 50 μl of concanavalin A (25 μg/ml). Incubations of cells with test compounds lasted for 72 hours at 37° C., in 5% CO2 atmosphere and 100% humidity. At the end of incubation period, the cells were assayed by using the [^3H]-TdR:
Cell cultures were incubated with 0.5 μCi (20 μl of stock solution 500 μCi/ml) per well for 6 hours at 37° C. and 5% CO2. The automated cell harvester was used to lyse cells in water and adsorb the DNA onto glass-fiber filters in the format of microtiter plate. The DNA incorporated [^3H]-TdR was retained on the filter while unincorporated material passes through. The filters were dried at room temperature overnight, sealed into a sample bag with 10-12 ml of scintillant. The amount of [^3H]-TdR present in each filter (in cpm) was determined by scintillation counting in a Betaplate liquid scintillation counter. The effective dose of immunosuppressant (ED) was calculated using the following equation: ED=(CCPMdrug exposed well/mean CCPMcontrol wells)×100%. The ED50 value, the drug concentration inhibiting proliferation of 50% of lymphocytes, was calculated from the obtained dose response curves.

[9] = test system: Amaranthus caudatus cotyledon/hypocotyl explants; assay: Amaranthus bioassay (betacyanin content); format: in vivo
Outline: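 Surface-sterilised Amaranthus caudatus var. atropurpurea seeds were germinated 72 h at 25° C. in darkness, then de-rooted. Cotyledon/hypocotyl explants (20 per dish) were incubated under green safe light on filter paper with 1 ml medium of 10 μmol NA2HPO4-KH2PO4, pH 6.8, 5 μmol tyrosine and cytokinin (10^-8M to 10^-4M) for 48 h at 25° C. in darkness. Betacyanin was extracted in […] acetic acid and measured by absorbance at 537 nm and 620 nm.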

[10] = test system: Rosa hybrida ‘Pailin’; assay: Early shoot senescence inhibition of tissue cultured roses; format: in vivo; conditions: 10 μM in medium
Procedure: Rosa hybrida ‘Pailin’ (a cut rose) was cultured in 350 ml vessels with a screw on polycarbonate lid. Each culture vessel contained 100 ml autoclaved medium (120° C., 20 min). The cultures were maintained at 23±2° C. under a 16 h photoperiod at […] m^−2 s^−1 PAR. The basal medium (MBR) contained Murashige and Skoog (1962) macroelements, microelements and vitamins, 36.7 mg/l NaFeEDTA, 50 mg/l NaFeEDDHA, […], 30 g/l sucrose, 100 mg/l glycine, 50 mg/l calcium pantothenate, 100 mg/l L-glutamine and 7 g/l agar-agar. This medium was supplemented with 10 μM of the tested cytokinin. New cytokinins were filter sterilised and added after autoclaving the medium in the vessels. 6-Benzylaminopurine (BAP) was used as a standard compound; the control medium didn't contain any cytokinin. After a culture period of 6 weeks, scoring senescence symptoms was started.

[11] = test system: glutamate kinase; assay: Field studies: glutamate kinase activity in spring wheat; format: in vivo; design: tested at 1 µM (10^-6 M spray solution); conditions: 6 days after the application, Control = 100.0
Procedure: (§2) Height of plants, leaf area, dry matter, development of vegetation opex—bases of future spike, and number of spikelets were monitored after germination in 14 day intervals, […]. From these primary data, values used in production physiology are derived, as leaf area index LAI, photosynthetic capacity LAD, tillering potential. Experiments with treatment of spring wheat crop (variety Sandra) are carried out on the field (area 10 m^2, four replicates) by spraying 1 litr of 10^−6 molar solution of tested compound (cytokinin) at the transition period from jointing stage to athesis stage (49 DC).
Glutamate kinase activity was determined 6 days after the application. This enzyme was selected because of good corelation of its activity changes and state of transport of endogenous substances (nutrients from roots, assimilates to cariopsis), respiration, energy (adenosintriphosphate) transfer, storage of nutrients, growth and developmental proceses, and also metabolism of proline, which is known from literature to play an important role in adaptation against stress (unsuitable stand, drought, hypersalinity, coldness) and also in regulation of both theoretical and real production (restriction of seed number reduction per spikelet). Enzyme glutamate kinase catalyses to glutamate conversion into γ glutamylphosphate, which is first step of proline biosynthesis from glutamate. Therefore, this enzyme is, as essential precursor of other plant metabolic pathways, marker of stress inhibition. It can be determined spectrofotometrically (Vasáková, 1980). For analysis, acetone powder is prepared from a sample by standard method, subsequently extracted by 0.05M potassium-phosphate buffer pH=7.2 and centrifugated. Glutamate kinase fraction is precipitated using crystalline ammonium sulfate and after dialysis, glutamate kinase activity is determined spectrophotometrically. Proline accumulation increased by stress corresponds as a “feedback” to glutamate kinase inhibition.

[12] = test system: Rosa multiflora; assay: In vitro and post vitro multiplication and rooting of rose; format: in vivo
[13] = test system: spring wheat (variety Sandra); assay: Field studies: yield analysis of spring wheat crop; format: in vivo; conditions: spray of 10^−6 molar solution, Control = 100.0
Procedure: Crops (over the 4-year period) of spring wheat were sown in the experimental fields of Czech Agriculture University (CZU) (region of sugar beet production type) at a seeding rate of 400 germinative grains·m^−2 into ploughed and shoddy soil containing 116.1 mg/kg P, 228.3 mg/kg K, and 211.8 mg/kg Mg (agrochemical analyses were done at Department of Pedology CZU) (interval between ploughing and sowing is usually 3-4 days, longer only in case of adverse weather conditions). Preceding crop was rape. Soil preparation was done by the classical way using skid and harrow and after seeding is rolled.
as §2
Yield analysis, evaluating spike lenght and seed number per spikelet (Σ Z/K) were carried out for 30 plant per each variant, yield from 1 m^2 and 1000 grain weight (HTS) was determined from 8 replicates, yield per ha was subsequently calculated.

[14] = Ex vitro, after four weeks of acclimatising

OC[C@H]1O[C@@H](n2cnc3c(NCc4cccc(Cl)c4O)ncnc32)[C@H](O)[C@@H]1O [2-hydroxy-3-chlorobenzylamino, 6-(2-hydroxy-3-chlorobenzylamino)purine riboside]
IC50 [1]: 0.1 µM
IC50 [2]: 10.7 µM
IC50 [3]: 128 µM
IC50 [4]: 0.3 µM
IC50 [5]: > 167 µM
IC50 [6]: 15 µM
IC50 [7]: > 167 µM
EC50 [8]: 2.1 µM

COc1ccc(CNc2ncnc3c2ncn3[C@@H]2O[C@H](CO)[C@@H](O)[C@H]2O)c(O)c1 [2-hydroxy-4-methoxybenzylamino, 6-(2-hydroxy-4-methoxybenzylamino)purine riboside]
EC50 [8]: 1.5 µM

OC[C@H]1O[C@@H](n2cnc3c(NCc4ccccc4O)ncnc32)[C@H](O)[C@@H]1O [2-hydroxybenzylamino, 6-(2-hydroxybenzylamino)purine riboside]
IC50 [1]: 0.42 µM
IC50 [2]: 88 µM
IC50 [3]: > 167 µM
IC50 [4]: 0.7 µM
IC50 [5]: 43.2 µM
IC50 [6]: 11.4 µM
IC50 [7]: 2.8 µM
EC50 [8]: 4.8 µM

OC[C@H]1O[C@@H](n2cnc3c(NCc4ccc(O)c(O)c4)ncnc32)[C@H](O)[C@@H]1O [3,4-dihydroxybenzylamino, 6-(3,4-dihydroxybenzylamino)purine riboside]
Concentration with highest activity ([9]; 48 h dark): 10^−4 mol · l^−1
Activity (%) [10^−5 mol · l^−1 BAP = 100%] ([9]; at concentration with highest activity): 8 ± 3%
EC50 [8]: 8.3 µM

OC[C@H]1O[C@@H](n2cnc3c(NCc4cccc(O)c4)ncnc32)[C@H](O)[C@@H]1O [3-hydroxybenzylamino, 6-(3-hydroxybenzylamino)purine riboside]
IC50 [1]: 23.7 µM
IC50 [2]: > 167 µM
IC50 [3]: > 167 µM
IC50 [4]: 51.9 µM
IC50 [5]: > 167 µM
IC50 [6]: > 167 µM
IC50 [7]: > 167 µM
EC50 [8]: 10.7 µM

c1ccc(CNc2ncnc3nc[nH]c23)cc1 [BAP, 6-benzylaminopurine, reference compound]
senescence / dying of rose explants (in words) [10]: the relative number of dead plants looks like a sigmoid curve; also recorded: dead Rosa explant
GK % (glutamate kinase activity) [11]: 108.2%
shoot multiplication and rooting (in words) ([12]; 10 μM in medium): high shoot multiplication rate, but the shoots rooted badly
Root number per plant [12, 14]: 0.6
Total root length per plant (cm) [12, 14]: 1.1 cm
Flower number per explant ([12]; In vitro, 10 μM, 8 weeks): 0.00
Number of new shoots per explant ([12]; In vitro, 10 μM, 8 weeks): 3.8
Root number per explant ([12]; In vitro, 10 μM, 8 weeks): 0.0
Total root length per explant (cm) ([12]; In vitro, 10 μM, 8 weeks): 0.0 cm
HTS (%) (1000 grain weight) [13]: 102.0%
Yield(%) [13]: 115.4%
Σ Z/K (%) (seed number per spikelet) [13]: 111.9%
Σ spike/m^2 (%) [13]: 101.1%

OC[C@H]1O[C@@H](n2cnc3c(NCc4ccccc4)ncnc32)[C@H](O)[C@@H]1O [BAPR, 6-benzylaminopurine riboside, reference compound]
GK % (glutamate kinase activity) [11]: 154.1%
HTS (%) (1000 grain weight) [13]: 103.8%
Yield(%) [13]: 121.9%
Σ Z/K (%) (seed number per spikelet) [13]: 114.3%
Σ spike/m^2 (%) [13]: 102.7%

Oc1cccc(CNc2ncnc3nc[nH]c23)c1 [mT, 6-(3-hydroxybenzylamino)purine]
senescence / dying of rose explants (in words) [10]: the situation improved
